# How the values were obtained:
# [1] = molecular target: T1, IRAK1 (Homo sapiens, UniProt P51617); assay: RBC HotSpot Kinase Assay, IRAK1; type: biochemical; settings: isolated kinase enzyme, 33P-ATP, P81 filter-binding
# T1 construct: purchased Reaction Biology (RBC HotSpot)
# Method in brief: (§1)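 Radiometric HotSpot assay of catalytic activity with isolated recombinant kinase, possibly truncated or kinase domain only. Buffer: 20 mM Hepes pH 7.5, 10 mM MgCl2, 1 mM EGTA, 0.01% Brij35, 0.02 mg/ml BSA, 0.1 mM Na3VO4, 2 mM DTT, 1% DMSO, with cofactors specific to each kinase.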
# [2] = test system: MOLM14 D835Y cells; assay: MOLM14 D835Y cell viability assay (Cell Titer Glo); type: cell-based; settings: Homo sapiens, MOLM-14, 48 h, cell viability, Cell Titer Glo, 48 hours; read-out: MOLM14 D835Y IC50
# Method in brief: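 MOLM14 cells with FLT3 D835Y or F691L kinase-domain resistance mutations seeded at 1000 cells/well and exposed to compound for 48 h under standard incubator conditions. Viability read by CellTiter-Glo luminescence after 15 min at room temperature.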
# [3] = test system: MOLM14 F691L cells; assay: MOLM14 F691L cell viability assay (Cell Titer Glo); type: cell-based; settings: Homo sapiens, MOLM-14; cell viability, Cell Titer Glo, 48 hours; read-out: MOLM14 F691L IC50
# Experimental: Both cell lines have activated FLT3 receptors, each of which carry additional resistance mutations in the kinase domain (D835Y and F691L, respectively).
# For viability/cytotoxicity assessments, cells were seeded into 1536-well white polystyrene tissue culture-treated Greiner plates using a Multidrop Combi dispenser (ThermoFisher), in final volume 5 μL of growth media per well, at a density of 1000 cells per well. […] Plates were incubated for 48 hours at standard incubator conditions covered by a stainless steel gasketed lid to prevent evaporation. 48 hours post compound addition, 3 μL of Cell Titer Glo (Promega) were added to each well and plates were incubated at room temperature for 15 minutes with the stainless-steel lid in place. Luminescence readings were taken using a Viewlux imager (PerkinElmer) with a 2 second exposure time per plate.
# [4] = molecular target: T2, IRAK4 (Homo sapiens, UniProt Q9NWZ3); assay: RBC HotSpot Kinase Assay, IRAK4; type: biochemical; design: purchased Reaction Biology (RBC HotSpot); settings: isolated kinase enzyme, 33P-ATP, P81 filter-binding
# T2 sequence (Q9NWZ3 1-460): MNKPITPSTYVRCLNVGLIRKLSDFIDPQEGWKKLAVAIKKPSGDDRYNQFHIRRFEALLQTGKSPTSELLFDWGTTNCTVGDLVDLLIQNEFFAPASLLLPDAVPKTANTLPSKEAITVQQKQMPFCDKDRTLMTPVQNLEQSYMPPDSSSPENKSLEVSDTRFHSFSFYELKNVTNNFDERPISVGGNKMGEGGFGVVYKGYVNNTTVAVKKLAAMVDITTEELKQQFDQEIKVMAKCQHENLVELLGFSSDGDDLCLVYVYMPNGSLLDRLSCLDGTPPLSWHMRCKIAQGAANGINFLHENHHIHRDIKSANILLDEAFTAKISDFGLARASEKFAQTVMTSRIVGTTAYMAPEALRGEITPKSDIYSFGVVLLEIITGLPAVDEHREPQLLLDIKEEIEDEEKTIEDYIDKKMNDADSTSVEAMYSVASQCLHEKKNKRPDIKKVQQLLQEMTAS
# Method in brief: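 Radiometric filter-binding activity assay with isolated recombinant kinase (construct may be truncated or catalytic domain only) in 20 mM Hepes pH 7.5, 10 mM MgCl2, 1 mM EGTA, 2 mM DTT, 1% DMSO. Compound preincubated 20 min with kinase/substrate; reaction started with 33P-ATP, run 2 h at room temperature.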
# [5] = molecular target: T3, FLT3 (Homo sapiens, UniProt P36888); assay: RBC HotSpot Kinase Assay, FLT3; type: biochemical; design: purchased Reaction Biology (RBC HotSpot); settings: isolated kinase enzyme, 33P-ATP, P81 filter-binding
# T3 sequence (P36888 27-993): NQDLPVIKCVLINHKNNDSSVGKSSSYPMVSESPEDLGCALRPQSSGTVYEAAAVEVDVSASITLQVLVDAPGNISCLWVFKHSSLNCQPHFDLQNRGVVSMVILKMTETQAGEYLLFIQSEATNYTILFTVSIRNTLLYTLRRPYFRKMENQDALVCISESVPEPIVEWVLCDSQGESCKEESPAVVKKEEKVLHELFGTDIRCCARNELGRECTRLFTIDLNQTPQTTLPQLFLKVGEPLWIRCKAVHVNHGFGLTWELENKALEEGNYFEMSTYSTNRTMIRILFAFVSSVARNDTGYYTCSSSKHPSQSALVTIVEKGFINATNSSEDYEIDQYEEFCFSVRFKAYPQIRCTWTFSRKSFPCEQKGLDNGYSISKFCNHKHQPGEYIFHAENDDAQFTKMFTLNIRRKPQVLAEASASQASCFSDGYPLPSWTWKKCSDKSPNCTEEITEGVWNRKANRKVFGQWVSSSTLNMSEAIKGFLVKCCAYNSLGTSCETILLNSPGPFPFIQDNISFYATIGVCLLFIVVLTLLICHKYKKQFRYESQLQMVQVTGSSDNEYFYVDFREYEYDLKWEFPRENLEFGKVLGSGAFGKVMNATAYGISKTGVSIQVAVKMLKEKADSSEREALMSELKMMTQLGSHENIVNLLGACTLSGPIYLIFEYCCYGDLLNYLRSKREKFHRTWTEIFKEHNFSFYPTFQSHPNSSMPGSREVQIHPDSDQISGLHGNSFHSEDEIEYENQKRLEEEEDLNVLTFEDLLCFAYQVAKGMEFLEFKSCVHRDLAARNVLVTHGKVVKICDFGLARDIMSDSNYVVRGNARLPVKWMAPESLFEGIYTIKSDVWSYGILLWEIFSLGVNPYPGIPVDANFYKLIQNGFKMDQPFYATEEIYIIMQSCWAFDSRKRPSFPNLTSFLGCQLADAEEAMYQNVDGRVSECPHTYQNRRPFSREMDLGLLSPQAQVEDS
# Method in brief: as §1
# T1 sequence (P51617 whole entry): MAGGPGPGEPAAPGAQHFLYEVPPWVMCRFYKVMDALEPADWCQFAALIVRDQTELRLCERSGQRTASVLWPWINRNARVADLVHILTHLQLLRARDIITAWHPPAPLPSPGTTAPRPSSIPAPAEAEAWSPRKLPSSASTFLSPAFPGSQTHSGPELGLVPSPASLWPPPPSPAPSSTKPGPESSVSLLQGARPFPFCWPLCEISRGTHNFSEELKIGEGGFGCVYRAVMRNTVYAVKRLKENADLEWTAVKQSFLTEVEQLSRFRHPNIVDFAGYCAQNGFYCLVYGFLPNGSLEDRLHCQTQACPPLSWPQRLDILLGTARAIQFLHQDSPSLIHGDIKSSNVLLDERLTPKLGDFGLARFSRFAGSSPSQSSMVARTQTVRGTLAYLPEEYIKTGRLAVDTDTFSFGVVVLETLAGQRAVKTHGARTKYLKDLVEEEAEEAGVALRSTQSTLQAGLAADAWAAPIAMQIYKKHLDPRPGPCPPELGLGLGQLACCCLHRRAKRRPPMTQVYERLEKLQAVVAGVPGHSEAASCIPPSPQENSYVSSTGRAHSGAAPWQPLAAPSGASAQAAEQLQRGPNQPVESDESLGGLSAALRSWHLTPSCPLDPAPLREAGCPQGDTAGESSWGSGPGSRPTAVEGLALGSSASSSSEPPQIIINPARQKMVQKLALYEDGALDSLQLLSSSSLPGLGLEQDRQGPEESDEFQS
SMILES,IC50 [1],IC50 [2],IC50 [3],IC50 [4],IC50 [5]
"COc1cc2ncc(-c3ccnc(N[C@H]4CNC[C@@H]4F)n3)n2nc1C1CC(C)(C)C1 [Compound 80a, 4-(6-(3,3-dimethylcyclobutyl)-7-methoxyimidazo[1,2-b]pyridazin-3-yl)-N-((3S,4S)-4-fluoropyrrolidin-3-yl)pyrimidin-2-amine]",142 nM,90 nM,798 nM,17 nM,< 0.5 nM
COc1cc2ncc(-c3ccnc(N[C@@H]4CCCNC4)n3)n2nc1C1CC(C)(C)C1 [Compound 81a],49 nM,90 nM,1260 nM,55 nM,< 0.5 nM
"COc1cc2ncc(-c3ccnc(N[C@H]4CNC[C@@H]4F)n3)n2nc1C1CCCC1 [Compound 83a, 4-(6-cyclopentyl-7-methoxyimidazo[1,2-b]pyridazin-3-yl)-N-((3S,4S)-4-fluoropyrrolidin-3-yl)pyrimidin-2-amine]",8 nM,16 nM,113 nM,0.6 nM,< 0.5 nM
"COc1cc2ncc(-c3ccnc(N[C@@H]4CCCNC4)n3)n2nc1C1CCCC1 [Compound 84a, (R)-4-(6-cyclopentyl-7-methoxyimidazo[1,2-b]pyridazin-3-yl)-N-(piperidin-3-yl)pyrimidin-2-amine]",18 nM,14 nM,113 nM,2 nM,< 0.5 nM
"COc1cc2ncc(-c3ccnc(N[C@H]4CNCC[C@@H]4F)n3)n2nc1C1CCCC1 [Compound 85a, 4-(6-cyclopentyl-7-methoxyimidazo[1,2-b]pyridazin-3-yl)-N-((3S,4S)-4-fluoropiperidin-3-yl)pyrimidin-2-amine]",7 nM,11 nM,90 nM,1 nM,< 0.5 nM
"COc1cc2ncc(-c3ccnc(N[C@H]4CNC[C@@H]4F)n3)n2nc1C1CCCCC1 [Compound 86a, 4-(6-cyclohexyl-7-methoxyimidazo[1,2-b]pyridazin-3-yl)-N-((3S,4S)-4-fluoropyrrolidin-3-yl)pyrimidin-2-amine]",16 nM,18 nM,142 nM,1 nM,< 0.5 nM
"COc1cc2ncc(-c3ccnc(N[C@@H]4CCCNC4)n3)n2nc1C1CCCCC1 [Compound 87a, (R)-4-(6-cyclohexyl-7-methoxyimidazo[1,2-b]pyridazin-3-yl)-N-(piperidin-3-yl)pyrimidin-2-amine]",26 nM,28 nM,252 nM,3 nM,< 0.5 nM
"COc1cc2ncc(-c3ccnc(N[C@H]4CNCC[C@@H]4F)n3)n2nc1C1CCCCC1 [Compound 88a, 4-(6-cyclohexyl-7-methoxyimidazo[1,2-b]pyridazin-3-yl)-N-((3S,4S)-4-fluoropiperidin-3-yl)pyrimidin-2-amine]",13 nM,25 nM,179 nM,4 nM,< 0.5 nM
"COc1cc2ncc(-c3ccnc(N[C@H]4CNC[C@@H]4F)n3)n2nc1C12CC(C1)C2 [Compound 89a, 4-(6-(bicyclo[1.1.1]pentan-1-yl)-7-methoxyimidazo[1,2-b]pyridazin-3-yl)-N-((3S,4S)-4-fluoropyrrolidin-3-yl)pyrimidin-2-amine]",44 nM,18 nM,160 nM,4 nM,< 0.5 nM
"COc1cc2ncc(-c3ccnc(N[C@@H]4CCCNC4)n3)n2nc1C12CC(C1)C2 [Compound 90a, (R)-4-(6-(bicyclo[1.1.1]pentan-1-yl)-7-methoxyimidazo[1,2-b]pyridazin-3-yl)-N-(piperidin-3-yl)pyrimidin-2-amine]",85 nM,50 nM,449 nM,9 nM,< 0.5 nM
"COc1cc2ncc(-c3ccnc(N[C@H]4CNCC[C@@H]4F)n3)n2nc1C12CC(C1)C2 [Compound 91a, 4-(6-(bicyclo[1.1.1]pentan-1-yl)-7-methoxyimidazo[1,2-b]pyridazin-3-yl)-N-((3S,4S)-4-fluoropiperidin-3-yl)pyrimidin-2-amine]",45 nM,28 nM,283 nM,5 nM,< 0.5 nM
"COc1cc2ncc(-c3nc(N[C@H]4CNC[C@@H]4F)ncc3F)n2nc1C1COC1 [Compound 93a, 5-fluoro-N-((3S,4S)-4-fluoropyrrolidin-3-yl)-4-(7-methoxy-6-(oxetan-3-yl)imidazo[1,2-b]pyridazin-3-yl)pyrimidin-2-amine]",5 nM,13 nM,142 nM,< 0.5 nM,< 0.5 nM
"COc1cc2ncc(-c3ccnc(N[C@H]4CNC[C@@H]4F)n3)n2nc1C1COC1 [Compound 95a, N-((3S,4S)-4-fluoropyrrolidin-3-yl)-4-(7-methoxy-6-(oxetan-3-yl)imidazo[1,2-b]pyridazin-3-yl)pyrimidin-2-amine]",300 nM,113 nM,2000 nM,6 nM,0.7 nM
"COc1cc2ncc(-c3ccnc(N[C@@H]4CCCNC4)n3)n2nc1C1COC1 [Compound 96a, (R)-4-(7-methoxy-6-(oxetan-3-yl)imidazo[1,2-b]pyridazin-3-yl)-N-(piperidin-3-yl)pyrimidin-2-amine]",1790 nM,16 nM,160 nM,62 nM,0.5 nM
"COc1cc2ncc(-c3ccnc(N[C@H]4CNCC[C@@H]4F)n3)n2nc1C1COC1 [Compound 97a, N-((3S,4S)-4-fluoropiperidin-3-yl)-4-(7-methoxy-6-(oxetan-3-yl)imidazo[1,2-b]pyridazin-3-yl)pyrimidin-2-amine]",361 nM,32 nM,318 nM,4 nM,0.7 nM
"CC(C)(O)c1cn2c(-c3nc(N[C@H]4CNC[C@@H]4F)ncc3F)cnc2cn1 [Compound 98a, 2-(3-(5-fluoro-2-(((3S,4S)-4-fluoropyrrolidin-3-yl)amino)pyrimidin-4-yl)imidazo[1,2-a]pyrazin-6-yl)propan-2-ol]",46 nM,113 nM,2520 nM,2 nM,1 nM

# From patent US20260226048A1, “MULTI-CYCLIC IRAK AND FLT3 INHIBITING COMPOUNDS AND USES THEREOF” (CHILDREN'S HOSPITAL MEDICAL CENTER, priority 2023, published 2026)
